Measurements: PubChem BioAssay AID1259407 (Chemical Carcinogenesis Research Information System (CCRIS), 2018)
Activity calls are given as the source filed them. No rule for the calls is given here.

System: CCRIS mutagenicity, Ames/micronucleus/aberration tests
Experiment: CCRIS mutagenicity studies
[1] = Test System: AMES SALMONELLA TYPHIMURIUM, Strain/Indicator: TA98, Metabolic Activation: NONE, Method: PREINCUBATION
[2] = Test System: AMES SALMONELLA TYPHIMURIUM, Strain/Indicator: TA100, Metabolic Activation: NONE, Method: PREINCUBATION
[3] = Test System: AMES SALMONELLA TYPHIMURIUM, Strain/Indicator: TA97, Metabolic Activation: NONE, Method: STANDARD PLATE
[4] = Test System: AMES SALMONELLA TYPHIMURIUM, Strain/Indicator: TA98, Metabolic Activation: NONE, Method: STANDARD PLATE
[5] = Test System: AMES SALMONELLA TYPHIMURIUM, Strain/Indicator: TA100, Metabolic Activation: NONE, Method: STANDARD PLATE
[6] = Test System: AMES SALMONELLA TYPHIMURIUM, Strain/Indicator: TA104, Metabolic Activation: NONE, Method: STANDARD PLATE
[7] = Test System: AMES SALMONELLA TYPHIMURIUM, Strain/Indicator: TA98, Metabolic Activation: RAT, LIVER, S-9, AROCLOR 1254, Method: STANDARD PLATE
[8] = Test System: AMES SALMONELLA TYPHIMURIUM, Strain/Indicator: TA100, Metabolic Activation: RAT, LIVER, S-9, AROCLOR 1254, Method: STANDARD PLATE

Which mutagenic call (Test System: AMES SALMONELLA TYPHIMURIUM, Strain/Indicator: TA100, Metabolic Activation: RAT, LIVER, S-9, AROCLOR 1254) does the source give for Cc1cccc2cc3c4c(cccc4c12)-c1ccccc1-3 here?
Its mutagenic call is “active; positive”.

With Cc1c2cccc(F)c2c(C)c2c1ccc1ccccc12 as the compound, how does the mutagenic call (Test System: CHINESE HAMSTER V-79, Strain/Indicator: V-79/OUABAIN, Metabolic Activation: CELL-MEDIATED, Method: STANDARD PLATE) read?
The mutagenic call was “active; positive”.

For O[C@H]1[C@H]2O[C@H]2c2c(ccc3cc4ccc5ccccc5c4nc23)[C@@H]1O, which mutagenic call [1] is on record?
Its mutagenic call is “active; positive”.

What about the mutagenic call [2] of the same compound?
The mutagenic call was “active; positive”.

What about the mutagenic call (Test System: CHINESE HAMSTER V-79, Strain/Indicator: V-79/8-AZAGUANINE, Metabolic Activation: NONE, Method: STANDARD PLATE) of the same compound?
The mutagenic call was “active; positive”.

Which mutagenic call (Test System: AMES SALMONELLA TYPHIMURIUM, Strain/Indicator: GW257, Metabolic Activation: NONE, Method: STANDARD PLATE) does the source give for COc1cccc2c1C(=O)c1c(O)c3c(c(O)c1C2=O)C[C@@](O)(C(=O)CO)C[C@@H]3O[C@H]1C[C@H](N)[C@H](OC)[C@H](C)O1 here?
The mutagenic call was “active; positive”.

And the mutagenic call [3]?
The mutagenic call was “active; positive”.

What about the mutagenic call [1] of the same compound?
The mutagenic call was “active; positive”.

And the mutagenic call [4]?
The mutagenic call was “active; positive”.

What about the mutagenic call [5] of the same compound?
Its mutagenic call is “active; positive”.

And the mutagenic call [6]?
The mutagenic call was “active; positive”.

And the mutagenic call (Test System: AMES SALMONELLA TYPHIMURIUM, Strain/Indicator: TA1538, Metabolic Activation: NONE, Method: STANDARD PLATE)?
The mutagenic call was “active; positive”.

What about the mutagenic call (Test System: AMES SALMONELLA TYPHIMURIUM, Strain/Indicator: TA2637, Metabolic Activation: NONE, Method: STANDARD PLATE) of the same compound?
The mutagenic call was “active; positive”.

With CC(=O)Nc1nnc(-c2ccc([N+](=O)[O-])o2)s1 as the compound, how does the mutagenic call (Test System: AMES SALMONELLA TYPHIMURIUM, Strain/Indicator: TA100, Metabolic Activation: RAT, LIVER, S-9, KC500 OR PHENOBARBITAL, Method: LIQUID SUSPENSION) read?
Its mutagenic call is “active; positive”.

BrC(Br)C(Br)Br was tested. Which mutagenic call [3] did it give?
The mutagenic call was “active; positive”.

And the mutagenic call (Test System: AMES SALMONELLA TYPHIMURIUM, Strain/Indicator: TA97, Metabolic Activation: RAT, LIVER, S-9, AROCLOR 1254, Method: STANDARD PLATE)?
The mutagenic call was “active; positive”.

What about the mutagenic call [4] of the same compound?
The mutagenic call was “inactive; negative”.

And the mutagenic call [7]?
The mutagenic call was “active; positive”.

And the mutagenic call [5]?
The mutagenic call was “inactive; negative”.

What about the mutagenic call [8] of the same compound?
The mutagenic call was “active; positive”.

What about the mutagenic call [6] of the same compound?
Its mutagenic call is “inactive; negative”.

What about the mutagenic call (Test System: AMES SALMONELLA TYPHIMURIUM, Strain/Indicator: TA104, Metabolic Activation: RAT, LIVER, S-9, AROCLOR 1254, Method: STANDARD PLATE) of the same compound?
Its mutagenic call is “active; positive”.

And the mutagenic call (Test System: AMES SALMONELLA TYPHIMURIUM, Strain/Indicator: TA1530, Metabolic Activation: NONE, Method: PREINCUBATION)?
Its mutagenic call is “active; positive”.

What does the source list for Nc1cccc2cccnc12?
mutagenic call [1]: active; positive; mutagenic call (Test System: AMES SALMONELLA TYPHIMURIUM, Strain/Indicator: TA98, Metabolic Activation: RAT, LIVER, S-9, KANECHLOR 500 OR PHENOBARBITAL AND BETA-NAPHTHOFLAVONE, Method: PREINCUBATION): active; positive; mutagenic call [2]: active; positive; mutagenic call (Test System: AMES SALMONELLA TYPHIMURIUM, Strain/Indicator: TA100, Metabolic Activation: RAT, LIVER, S-9, KANECHLOR 500 OR PHENOBARBITAL AND BETA-NAPHTHOFLAVONE, Method: PREINCUBATION): active; positive; mutagenic call (Test System: AMES SALMONELLA TYPHIMURIUM, Strain/Indicator: TA100, Metabolic Activation: S-9, Method: PREINCUBATION): active; positive

What does the source list for O=[N+]([O-])c1cc2c3c(cccc3c1)-c1ccccc1-2?
mutagenic call (Test System: AMES SALMONELLA TYPHIMURIUM, Strain/Indicator: TA98(1,8-DNP6), Metabolic Activation: NONE, Method: STANDARD PLATE): inactive; negative; mutagenic call (Test System: AMES SALMONELLA TYPHIMURIUM, Strain/Indicator: TA98(NR), Metabolic Activation: NONE, Method: STANDARD PLATE): inactive; negative; mutagenic call [4]: active; positive; mutagenic call (Test System: AMES SALMONELLA TYPHIMURIUM, Strain/Indicator: TA7001, Metabolic Activation: NONE, Method: PREINCUBATION): inactive; negative; mutagenic call (Test System: AMES SALMONELLA TYPHIMURIUM, Strain/Indicator: TA7002, Metabolic Activation: NONE, Method: PREINCUBATION): active; positive; mutagenic call (Test System: AMES SALMONELLA TYPHIMURIUM, Strain/Indicator: TA7003, Metabolic Activation: NONE, Method: PREINCUBATION): inactive; negative; mutagenic call (Test System: AMES SALMONELLA TYPHIMURIUM, Strain/Indicator: TA7004, Metabolic Activation: NONE, Method: PREINCUBATION): active; positive; mutagenic call (Test System: AMES SALMONELLA TYPHIMURIUM, Strain/Indicator: TA7005, Metabolic Activation: NONE, Method: PREINCUBATION): active; positive; mutagenic call (Test System: AMES SALMONELLA TYPHIMURIUM, Strain/Indicator: TA7006, Metabolic Activation: NONE, Method: PREINCUBATION): active; positive

COCCOCCOP1(OCCOCCOC)=NP(OCCOCCOC)(OCCOCCOC)=NP(OCCOCCOC)(OCCOCCOC)=N1 was tested. Which mutagenic call [4] did it give?
The mutagenic call was “inactive; negative”.

And the mutagenic call [7]?
Its mutagenic call is “inactive; negative”.

What about the mutagenic call [5] of the same compound?
Its mutagenic call is “inactive; negative”.

What about the mutagenic call [8] of the same compound?
The mutagenic call was “inactive; negative”.

For CCCCN(CCCCO)N=O, which mutagenic call (Test System: AMES SALMONELLA TYPHIMURIUM, Strain/Indicator: TA1535, Metabolic Activation: NONE, Method: PREINCUBATION) is on record?
The mutagenic call was “inactive; negative”.

What about the mutagenic call (Test System: AMES SALMONELLA TYPHIMURIUM, Strain/Indicator: TA1535, Metabolic Activation: RAT, LIVER, HEPATOCYTES, Method: PREINCUBATION) of the same compound?
Its mutagenic call is “inactive; negative”.

What about the mutagenic call (Test System: AMES SALMONELLA TYPHIMURIUM, Strain/Indicator: TA1535, Metabolic Activation: RAT, LIVER, S-9, AROCLOR, Method: PREINCUBATION) of the same compound?
The mutagenic call was “active; positive”.

What about the mutagenic call (Test System: AMES SALMONELLA TYPHIMURIUM, Strain/Indicator: TA1535, Metabolic Activation: RAT, LIVER, S-9, KC500 OR PHENOBARBITAL, Method: LIQUID SUSPENSION) of the same compound?
The mutagenic call was “active; positive”.

What about the mutagenic call (Test System: AMES SALMONELLA TYPHIMURIUM, Strain/Indicator: TA1535, Metabolic Activation: RAT, LIVER, S-9, SODIUM PHENOBARBITONE, Method: PREINCUBATION) of the same compound?
The mutagenic call was “active; positive”.

And the mutagenic call (Test System: AMES SALMONELLA TYPHIMURIUM, Strain/Indicator: TA1535, Metabolic Activation: RAT, LIVER, S-9, Method: PREINCUBATION)?
The mutagenic call was “inactive; negative”.

How did the mutagenic call [1] turn out when N#C[S-].N#C[S-].N#C[S-].N#C[S-].N#C[S-].N#C[S-].[K+].[K+].[Pt+4] was run?
The mutagenic call was “inactive; negative”.

And the mutagenic call (Test System: AMES SALMONELLA TYPHIMURIUM, Strain/Indicator: TA98, Metabolic Activation: RAT, LIVER, S-9, AROCLOR 1254, Method: PREINCUBATION)?
Its mutagenic call is “inactive; negative”.

What about the mutagenic call [2] of the same compound?
Its mutagenic call is “inactive; negative”.

And the mutagenic call (Test System: AMES SALMONELLA TYPHIMURIUM, Strain/Indicator: TA100, Metabolic Activation: RAT, LIVER, S-9, AROCLOR 1254, Method: PREINCUBATION)?
Its mutagenic call is “inactive; negative”.
